Legend:
[1] = molecular target: T1, E3 ubiquitin-protein ligase XIAP (Homo sapiens, UniProt P98170); test: Antagonist activity at XIAP BIR3 domain assessed as restoration of caspase 9 activity by caspase-Glo 9 assay; format: functional
[2] = test system: MDA-MB-231; test: Cytotoxicity against human MDA-MB-231 cells after 4 days by WST-8 assay; conditions: MDA-MB-231, 96 h
[3] = test system: SK-OV-3; test: Cytotoxicity against human SKOV3 cells after 4 days by WST-8 assay; conditions: SK-OV-3, 96 h
[4] = molecular target: Baculoviral IAP repeat-containing protein 2 (Homo sapiens, UniProt Q13490); test: Binding affinity to cIAP1 BIR3 domain by fluorescence polarization assay
[5] = molecular target: T1, E3 ubiquitin-protein ligase XIAP; test: Binding affinity to XIAP linker BIR2-BIR3 domain site 1 by fluorescence polarization assay
[6] = molecular target: T1, E3 ubiquitin-protein ligase XIAP; test: Binding affinity to XIAP linker BIR2-BIR3 domain site 2 by fluorescence polarization assay

T1 sequence (P98170 whole entry, the tested form may be a part): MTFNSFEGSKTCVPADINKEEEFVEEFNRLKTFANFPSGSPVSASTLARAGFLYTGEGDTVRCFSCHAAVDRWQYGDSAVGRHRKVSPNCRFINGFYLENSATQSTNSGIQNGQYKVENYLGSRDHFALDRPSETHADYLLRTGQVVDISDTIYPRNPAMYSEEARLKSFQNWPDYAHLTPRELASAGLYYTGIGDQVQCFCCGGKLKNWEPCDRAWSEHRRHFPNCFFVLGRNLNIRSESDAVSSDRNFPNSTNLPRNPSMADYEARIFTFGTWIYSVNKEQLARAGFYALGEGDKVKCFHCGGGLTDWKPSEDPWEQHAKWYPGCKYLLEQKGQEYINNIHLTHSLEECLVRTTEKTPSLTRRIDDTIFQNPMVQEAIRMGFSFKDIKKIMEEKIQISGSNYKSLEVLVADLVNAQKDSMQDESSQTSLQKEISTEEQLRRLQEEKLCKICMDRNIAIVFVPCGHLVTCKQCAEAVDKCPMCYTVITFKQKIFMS
Chain of Baculoviral IAP repeat-containing protein 2 (Q13490 whole entry, the tested form may be a part): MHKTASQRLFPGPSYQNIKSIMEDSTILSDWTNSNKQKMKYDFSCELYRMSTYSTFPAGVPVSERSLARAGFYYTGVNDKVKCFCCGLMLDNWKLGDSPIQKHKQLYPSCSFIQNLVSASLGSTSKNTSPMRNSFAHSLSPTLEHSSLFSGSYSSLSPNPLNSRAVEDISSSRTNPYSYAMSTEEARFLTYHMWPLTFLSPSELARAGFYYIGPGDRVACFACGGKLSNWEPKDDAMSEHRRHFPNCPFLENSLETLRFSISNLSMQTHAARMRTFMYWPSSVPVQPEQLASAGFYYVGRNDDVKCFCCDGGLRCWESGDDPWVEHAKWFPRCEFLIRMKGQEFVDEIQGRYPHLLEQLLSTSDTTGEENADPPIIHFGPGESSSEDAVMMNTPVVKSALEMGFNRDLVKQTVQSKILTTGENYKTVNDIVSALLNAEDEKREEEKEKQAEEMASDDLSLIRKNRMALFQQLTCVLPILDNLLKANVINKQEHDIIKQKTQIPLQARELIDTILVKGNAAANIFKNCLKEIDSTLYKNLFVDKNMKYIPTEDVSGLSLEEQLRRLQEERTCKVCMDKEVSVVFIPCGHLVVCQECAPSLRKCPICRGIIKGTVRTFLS

IC50 [5] [nM]	IC50 [6] [nM]	SMILES	Activity [1]	IC50 [2] [nM]	IC50 [3] [nM]	Ki [4] [nM]
		CN[C@@H](C)C(=O)N[C@H]1CCCCn2cc(nn2)[C@H](Cc2ccccc2)NC(=O)[C@@H]2CCCN2C(=O)[C@@H](NC(=O)[C@H](C)NC)CCCCn2cc(nn2)[C@H](Cc2ccccc2)NC(=O)[C@@H]2CCCN2C1=O	Dose-dependent effect	25900	31500	161
		CN[C@@H](C)C(=O)N[C@H]1CCCCn2cc(nn2)[C@H](c2ccccc2)NC(=O)[C@@H]2CCCN2C(=O)[C@@H](NC(=O)[C@H](C)NC)CCCCn2cc(nn2)[C@H](c2ccccc2)NC(=O)[C@@H]2CCCN2C1=O	Dose-dependent effect			
1	481	CN[C@@H](C)C(=O)N[C@H]1CCCNC(=O)[C@H](Cc2ccccc2)NC(=O)[C@@H]2CCCN2C(=O)[C@@H](NC(=O)[C@H](C)NC)CCCNC(=O)[C@H](Cc2ccccc2)NC(=O)[C@@H]2CCCN2C1=O	Dose-dependent effect	4600	15900	84

Reference: ChEMBL document CHEMBL1157823, “Cyclopeptide Smac mimetics as antagonists of IAP proteins” (Bioorg Med Chem Lett, 2010)
